Results published in ChEMBL document CHEMBL4842376, “Design, synthesis and biological evaluation of novel hybrids targeting mTOR and HDACs for potential treatment of hepatocellular carcinoma” (Eur J Med Chem, 2021).
The source made the active and inactive calls. The calls are words filed in the database; no cut-off is given here.

Columns and labels:
Format in all cases: cell-based
[1] = target: T1, Serine/threonine-protein kinase mTOR (Homo sapiens, UniProt P42345); experiment: Inhibition of mTOR in human HepG2 cells assessed as reduction in phosphorylation of p70S6K measured after 24 hrs by western blot analysis; details: dose 1.5-6 µM
[2] = target: T1, Serine/threonine-protein kinase mTOR; experiment: Inhibition of mTOR in human HepG2 cells assessed as reduction in phosphorylation of 4EBP1 measured after 24 hrs by western blot analysis; details: dose 1.5-6 µM
[3] = target: T1, Serine/threonine-protein kinase mTOR; experiment: Activation of mTOR in human HepG2 cells assessed as increase in 4EBP1 phosphorylation at 1.5 uM measured after 24 hrs by western blot analysis; details: filed as activator
[4] = target: T1, Serine/threonine-protein kinase mTOR; experiment: Activation of mTOR in human HepG2 cells assessed as increase in p70S6K phosphorylation at 1.5 uM measured after 24 hrs by western blot analysis; details: filed as activator

Nc1nc2cc(-c3nn(CCCCCCC(=O)NO)c4ncnc(N)c34)ccc2o1
inhibition [1]: Dose-Dependent Effect
inhibition [2]: Dose-Dependent Effect

Nc1ncnc2c1c(-c1cnc3[nH]ccc3c1)nn2CCCCCCCCC(=O)NO
Activity [3]: Active
Activity [4]: Active
